Data taken from US20210261539A1, “COMPOUND HAVING BET INHIBITORY ACTIVITY AND PREPARATION METHOD AND USE THEREFOR” (Shanghai Haihe Pharmaceutical Co., Ltd., priority 2018, published 2021).

Biological target: T1, BRD4 BD1 (Homo sapiens, UniProt O60885)
T1 construct: Protein BRD4 BD1 used in the assay was purchased from Active Motif (cat. 31380); purchased Active Motif 31380
Test: HTRF in vitro enzyme activity assay, inhibition of BRD4 BD1 binding to acetylated H4 peptide
Conditions: IC50 values of the compounds against BRD4 BD1 binding; class symbols A/B/C
Procedure: Effect Examples: In Vitro Enzyme Activity Assay
Half inhibitory activity (IC50) of the compounds of the invention against the bromodomain protein BRD4 BD1 was determined in the present Examples.
The compounds of the invention were tested for inhibitory activity against BRD4 BD1 with Homogeneous Time-Resolved Fluorescence (HTRF).
2. Reagents, Consumable Materials and Instruments:
Protein BRD4 BD1 used in the assay was purchased from Active Motif (cat. 31380); streptavidin XL-665 (#610SAXLA) and EPIgeneous Binding Domain Kit A (#62BDAPEG) were both purchased from Cisbio Bioassays; [Lys(5,8,12,16)Ac] H4(1-21)-biotin (#64989), [Lys(5,8,12,16)Ac]H4(1-25) were available from Anaspec; OTX015 and ABBV-075 were purchased from Selleckchem Co. The 384-well ProxiPlate (#6008280) was purchased from Perkinelmer Co. The Laboratory microplate reader (Envision 2104) was available from PerkinElmer Co. The water used in the assay was Millipore-Q pure water.
3. Formulation of the Compound
10 mM DMSO stock solution of the test compound was diluted to 1 mM in DMSO, and then diluted 10-fold in Binding Domain dilution buffer (purchased from Cisbio Bioassays) for use (DMSO concentration in the final system was 0.1%), including 5 concentrations in 1:5 gradient.
4. Assay Protocol: 1 Batch, 2 Repeats
1) 5 μL of test compound was transferred to 45 μL Binding Domain dilution buffer.
2) 2 μL of 1× compound (4 μL Binding Domain dilution buffer: positive control; 6 μL enzyme buffer (purchased from Cisbio Bioassays): negative control) was transferred to a reaction plate.
3) 4 μL of 5×BRD 4(1) was added to the reaction plate (30 nM in the final system).
4) 4 μL of 5×[Lys(5,8,12,16)Ac] H4(1-21)-biotin was added to the reaction plate, and the plate was covered with a film and incubated at 37° C. for 30 min.
5) A detection mixture of SA-XL665 (2×) and anti-H3K9me0-Eu(K) (2×) was prepared in detection buffer (purchased from Cisbio Bioassays).
6) 10 μL of detection mixture (2×) was added to each well, incubated at RT for 3 h. The mp value was read by microplate reader Envision with the following parameters: […]

Row | SMILES | IC50
1 | CC1C(=O)N(C)c2ccc(N3C(=O)c4c(C(=O)NC5CC5)cccc4C3c3ccc(F)cc3)nc2N1CC(F)(F)F (stereo not shown) [Example A85-P4, N-cyclopropyl-2-(1,3-dimethyl-2-oxo-4-(2,2,2-trifluoroethyl)-1,2,3,4-tetrahydropyrido[2,3-b]pyrazin-6-fluorophenyl)-3-oxoisoindoline-4-carboxamide] | ≤ 10 nM
2 | CC1C(=O)N(CCF)c2ccc(N3C(=O)c4ccccc4C3c3cccnc3)nc2N1C1CC1 (stereo not shown) [Example A52-P4, 4-cyclopropyl-1-(2-fluoroethyl)-3-methyl-6-(1-oxo-3-(pyridin-3-yl)isoindolin-2-yl)-3,4-dihydropyrido [2,3-b]pyrazin-2(1H)-one] | ≤ 10 nM
3 | C[C@@H]1C(=O)N(C)c2cnc(N3C(=O)c4c(cccc4S(C)(=O)=O)C3c3cccnc3)nc2N1C (stereo partly drawn) [Example A103-P1, (7R)-5,7,8-trimethyl-2-(4-(methylsulfonyl)-3-oxo-1-(pyridin-3-yl)isoindolin-2-yl)-7,8-dihydropteridin-6(5H)-one] | ≤ 10 nM
4 | CC1C(=O)N(C)c2cnc(-n3c(=O)c4ccccc4n3-c3ccc(Cl)cc3)cc2N1C1CC1 (stereo not shown) [Example A29-P4, 7-(1-(4-chlorophenyl)-3-oxo-1H-indazol-2(3H)-yl)-1-cyclopropyl-2,4-dimethyl-1,2-dihydropyrido [3 4-b]pyrazin-3(4H)-one] | ≤ 10 nM
5 | CC1C(=O)N(C)c2ccc(N3C(=O)c4sccc4C3c3cccnc3)nc2N1C1CC1 (single isomer, unassigned) [Example A72-P4, 5-(4-cyclopropyl-1,3-dimethyl-2-oxo-1,2,3,4-tetrahydropyrido[2,3-b]pyrazin-6-yl)-4-(pyridin-3-yl)-4,5-dihydro-6H-thieno[2,3-c]pyrrol-6-one] | ≤ 10 nM
6 | C[C@H]1Oc2nc(N3C(=O)c4sccc4C3c3cccnc3)ccc2N(C)C1=O (single isomer, unassigned) [Example A115-P1] | ≤ 10 nM
7 | COC(=O)c1cccc2c1C(=O)N(c1ccc3c(n1)N(C1CC1)C(C)C(=O)N3C)C2c1ccc(F)cc1 (single isomer, unassigned) [Example A80-P3, Methyl 2-(4-cyclopropyl-1,3-dimethyl-2-oxo-1,2,3,4-tetrahydropyrido[2,3-b]pyrazin-6-yl)-1-(4-fluorophenyl)-3-oxoisoindoline-4-carboxylate] | ≤ 10 nM
8 | C[C@@H]1C(=O)N(C)c2cnc(N3C(=O)c4c(cccc4[S+](C)[O-])C3c3cccnc3)nc2N1C (stereo partly drawn) [A102-P2/P3, (7R)-5,7,8-trimethyl-2-(4-(methylsulfinyl)-3-oxo-1-(pyridin-3-yl)isoindolin-2-yl)-7,8-dihydropteridin-6(5H)-one] | ≤ 10 nM
9 | CC1C(=O)N(C)c2ccc(N3C(=O)CCC3c3cccnc3)nc2N1C1CC1 (single isomer, unassigned) [Example A14-P1, 4-cyclopropyl-1,3-dimethyl-6-(2-oxo-5-(pyridin-3-yl)pyrrolidin-1-yl)-3,4-dihydropyrido[2,3-b]pyrazin-2(1H)-one] | ≤ 10 nM
10 | Cc1cc(N2C(=O)CCC2c2ccccc2)nc2c1N(C)C(=O)C(C)N2C1CC1 (single isomer, unassigned) [Example A9-P1-2, 4-cyclopropyl-1,3,8-trimethyl-6-(2-oxo-5-phenylpyrrolidin-1-yl)-3,4-dihydropyrido[2,3-b]pyrazin-2(1H)-one] | 10 to 100 nM
11 | [2H]C([2H])([2H])N1C(=O)C(C)N(C2CC2)c2nc(N3C(=O)c4ccccc4C3c3cccnc3)ccc21 (stereo not shown) [Example A43-P4, 4-cyclopropyl-3-methyl-1-(trideuteromethyl)-6-(1-oxo-3-(pyridin-3-yl)isoindolin-2-yl)-3,4-dihydropyrido [2,3-B]pyrazin-2(1H)-one] | ≤ 10 nM
12 | C[C@@H]1C(=O)N(C)c2ccc(N3C(=O)c4ccccc4C3c3cccnc3)nc2N1CCF (single isomer, unassigned) [Example A55-P2, 4-(2-fluoroethyl)-1,3-dimethyl-6-(1-oxo-3-(pyridin-3-yl)isoindolin-2-yl)-3,4-dihydropyrido [2,3-b]pyrazin-2(1H)-one] | ≤ 10 nM
13 | C[C@H]1Oc2nc(N3C(=O)c4ccccc4C3c3ccc(F)nc3)ncc2N(C)C1=O (single isomer, unassigned) [Example A105-P1] | 10 to 100 nM
14 | C[C@H]1Oc2nc(N3C(=O)c4c(cccc4C(C)(C)O)C3c3ccc(F)cc3)ccc2N(C)C1=O (single isomer, unassigned) [Example A119-P1] | ≤ 10 nM
15 | CNC(=O)c1cccc2c1C(=O)N(c1ccc3c(n1)N(C1CC1)C(C)C(=O)N3C)C2c1cccnc1 (single isomer, unassigned) [Example A83-P3] | ≤ 10 nM
16 | C[C@@H]1C(=O)N(C)c2ccc(N3C(=O)c4c(cccc4[S+](C)[O-])C3c3cccnc3)nc2N1C (single isomer, unassigned) [Example A63-P3] | ≤ 10 nM
17 | CC(C)N1c2nc(N3C(=O)c4ccccc4C3c3cccnc3)ccc2N(C)C(=O)C1C (stereo not shown) [Example A57-P3] | ≤ 10 nM
18 | C[C@H]1Oc2nc(N3C(=O)c4cc(F)ccc4C3c3cccnc3)ncc2N(C)C1=O (stereo partly drawn) [Example A116-P3, (7R)-2-(5-fluoro-3-oxo-1-(pyridin-3-yl)isoindolin-2-yl)-5,7-dimethyl-5H-pyrimido[4,5-B][1,4]oxazin-6(7H)-one] | 100 to 1000 nM
19 | C[C@H]1Oc2nc(N3C(=O)c4ccccc4C3c3ccc(F)nc3)ccc2N(C)C1=O (single isomer, unassigned) [Example A111-P1] | ≤ 10 nM
20 | CCN1c2nc(N3C(=O)CCC3c3ccc(F)cc3)ccc2N(C)C(=O)[C@H]1C (single isomer, unassigned) [Example A16-P1] | ≤ 10 nM
21 | CC1C(=O)N(C)c2c(F)cc(N3C(=O)c4ccccc4C3c3cccnc3)cc2N1C1CC1 (single isomer, unassigned) [Example A71-P4, 4-cyclopropyl-8-fluoro-1,3-dimethyl-6-(1-oxo-3-(pyridin-3-yl)isoindolin-2-yl)-3,4-dihydroquinoxalin-2(1H)-one] | ≤ 10 nM
22 | CC1C(=O)N(C)c2ccc(-n3c(=O)c4ccccc4n3-c3ccc(C#N)cc3)nc2N1C1CC1 (stereo not shown) [Example A27-P1, 6-(1-(4-cyanophenyl)-3-oxo-1,3-dihydro-2H-indazol-2-yl)-4-cyclopropyl-1,3-dimethyl-3,4-dihydropyrido [2,3-b]pyrazin-2(1H)-one] | ≤ 10 nM
23 | CC1C(=O)N(C)c2ccc(N3C(=O)c4cc(F)ccc4C3c3cccnc3)nc2N1C1CC1 (single isomer, unassigned) [Example A74-P4, 4-cyclopropyl-6-(5-fluoro-3-oxo-1-(pyridin-3-yl)isoindolin-2-yl)-1,3-dimethyl-3,4-dihydropyrido[2,3-b]pyrazin-2(1H)-one] | ≤ 10 nM
24 | CC1C(=O)N(CC(F)(F)F)c2ccc(N3C(=O)c4ccccc4C3c3cccnc3)nc2N1C1CC1 (stereo not shown) [Example A46-P4, 4-cyclopropyl-1-(2,2,2-trifluoroethyl)-3-methyl-6-(1-oxo-3-(pyridin-3-yl)isoindolin-2-yl)-3,4-dihydropyrido [2,3-b]pyrazin-2(1H)-one] | ≤ 10 nM
25 | CC1C(=O)N(C)c2ccc(N3C(=O)c4ccccc4C3c3ccc(F)nc3)nc2N1C1CC1 (single isomer, unassigned) [Example A67-P3, 4-cyclopropyl-1,3-dimethyl-6-(1-oxo-3-(6-fluoropyridin-3-yl)isoindolin-2-yl)-3,4-dihydropyrido[3,2-b]pyrazin-2-(1H)-one] | ≤ 10 nM
